Measured values: patent US10022422B2, “Peptidomimetic macrocycles” (priority 2009, dated 2018)
Where a SMILES comes first, the peptide text is derived from it. Bridges are numbered along the chain shown (N, C = ends). [ ]: non-standard residue; d: D form. R8 = C=CCCCCCC[C@@](C)(N)C(=O)O; S5 = C=CCCC[C@](C)(N)C(=O)O; Nle = CCCC[C@H](N)C(=O)O; Aib = CC(C)(N)C(=O)O

Assay: Figure 6
Parameters: AUC,all / AUC,inf: concentration or dose not given beside the values
Description: Table printed on a drawing sheet, Figure 6
First reader's note: The head SP-2 is printed shifted to the left of its column of values.
In the case of `CCCC[C@H](NC(C)=O)C(=O)N[C@@H](CC(=O)O)C(=O)N[C@H](C(=O)N[C@@H](CC(N)=O)C(=O)N1CCC[C@H]1C(=O)N[C@H](C(=O)N[C@@H](CC(C)C)C(=O)N[C@@H](CC(C)C)C(=O)N[C@@H](Cc1ccccc1)C(=O)N[C@@H](CC(C)C)C(=O)N[C@@H](CCCCN)C(=O)N[C@H](C(=O)N1CCC[C@H]1C(=O)N[C@@H](C)C(=O)N[C@@H](CCC(N)=O)C(N)=O)C(C)C)[C@@H](C)O)C(C)C` [SP-1, Ac-NleDVNPTLLFLKVPAQ-NH2], the “AUC,all” value is reported as 1.606 µg·h/mL, the “AUC,inf” value is reported as 1.616 µg·h/mL and the “Cl” value is reported as 1.873 L/h/kg. For the same compound, the “Cmax, obs” value was 7.742 µg/mL, the “MRT” value was 0.13 h and the “T1/2” value was 0.16 h. For the same compound, the “Vss” value was 0.241 L/kg. In the case of `CCCC[C@H](NC(C)=O)C(=O)N[C@@H](CC(=O)O)C(=O)N[C@H](C(=O)N[C@@H](CC(N)=O)C(=O)NC(C)(C)C(=O)N[C@H](C(=O)N[C@@H](CC(C)C)C(=O)N[C@@H](CC(C)C)C(=O)N[C@@H](Cc1ccccc1)C(=O)N[C@@]1(C)CCCC=CCCC[C@@](C)(C(=O)N[C@@H](CCCNC(=N)N)C(N)=O)NC(=O)[C@H](C)NC(=O)[C@H](C(C)C)NC(=O)[C@H](CCCCN)NC1=O)[C@@H](C)O)C(C)C` [SP-6, Ac-NleDVNAibTLLF$KVA$R-NH2] (Ac-[Nle]DVN[Aib]TLLF[S5]KVA[S5]R-NH2; staple 10-14), the “AUC,all” value is reported as 10.894 µg·h/mL, the “AUC,inf” value is reported as 10.976 µg·h/mL and the “Cl” value is reported as 0.279 L/h/kg. The “Cmax, obs” value was 12.564 µg/mL, the “MRT” value was 1.25 h and the “T1/2” value was 1.29 h. The “Vss” value was 0.348 L/kg. In the case of `CCCC[C@H](NC(C)=O)C(=O)N[C@@H](CC(=O)O)C(=O)N[C@H](C(=O)N[C@@H](CC(N)=O)C(=O)N1CCC[C@H]1C(=O)N[C@H](C(=O)N[C@@H](CC(C)C)C(=O)N[C@@H](CC(C)C)C(=O)N[C@@H](Cc1ccccc1)C(=O)N[C@@]1(C)CCCC=CCCC[C@@](C)(C(=O)N[C@@H](CCCNC(=N)N)C(N)=O)NC(=O)[C@H](C)NC(=O)[C@H](C(C)C)NC(=O)[C@H](CCCCN)NC1=O)[C@@H](C)O)C(C)C` [SP-11, Ac-NleDVNPTLLF$KVA$R-NH2] (Ac-[Nle]DVNPTLLF[S5]KVA[S5]R-NH2; staple 10-14), the “AUC,all” value is reported as 9.065 µg·h/mL, the “AUC,inf” value is reported as 9.1 µg·h/mL and the “Cl” value is reported as 0.34 L/h/kg. The “Cmax, obs” value was 18.748 µg/mL, the “MRT” value was 0.52 h and the “T1/2” value was 0.54 h. The “Vss” value was 0.178 L/kg. In the case of `CCCC[C@H](NC(C)=O)C(=O)N[C@@H](CC(=O)O)C(=O)N[C@H](C(=O)N[C@@H](CC(N)=O)C(=O)NC(C)(C)C(=O)N[C@H](C(=O)N[C@@H](CC(C)C)C(=O)N[C@@H](CC(C)C)C(=O)N[C@@H](Cc1ccccc1)C(=O)N[C@@H](CC(C)C)C(=O)N[C@@H](CCCCN)C(=O)N[C@H](C(=O)NC(C)(C)C(=O)N[C@@H](C)C(=O)N[C@@H](CCC(N)=O)C(N)=O)C(C)C)[C@@H](C)O)C(C)C` [SP-2, Ac-NleDVNAibTLLFLKVAibAQ-NH2] (Ac-[Nle]DVN[Aib]TLLFLKV[Aib]AQ-NH2), the “AUC,all” value is reported as 3.36 µg·h/mL, the “AUC,inf” value is reported as 3.385 µg·h/mL and the “Cl” value is reported as 0.899 L/h/kg. For the same compound, the “Cmax, obs” value was 8.145 µg/mL, the “MRT” value was 0.41 h and the “T1/2” value was 0.33 h. The “Vss” value was 0.366 L/kg. With `CCCC[C@H](NC(C)=O)C(=O)N[C@@H](CC(=O)O)C(=O)N[C@H](C(=O)N[C@@H](CC(N)=O)C(=O)NC(C)(C)C(=O)N[C@H](C(=O)N[C@@H](CC(C)C)C(=O)N[C@@]1(C)CCCC=CCCC[C@@](C)(C(=O)N[C@@H](C)C(=O)N[C@@H](C)C(=O)N[C@@H](CCC(N)=O)C(N)=O)NC(=O)[C@H](CCCCN)NC(=O)[C@H](CC(C)C)NC(=O)[C@H](Cc2ccccc2)NC1=O)[C@@H](C)O)C(C)C` [SP-9, Ac-NleDVNAibTL$FLK$AAQ-NH2] (Ac-[Nle]DVN[Aib]TL[S5]FLK[S5]AAQ-NH2; staple 8-12) the “AUC,all” value was 8.19 µg·h/mL, the “AUC,inf” value was 11.95 µg·h/mL and the “Cl” value was 0.34 L/h/kg. The “Cmax, obs” value was 9.766 µg/mL, the “MRT” value was 1.41 h and the “T1/2” value was 1.59 h. For the same compound, the “Vss” value was 0.363 L/kg. With `CCCC[C@H](NC(C)=O)C(=O)N[C@@H](CC(=O)O)C(=O)N[C@H](C(=O)N[C@@H](CC(N)=O)C(=O)NC(C)(C)C(=O)N[C@H](C(=O)N[C@]1(C)CCCCCCC=CCCC[C@@](C)(C(=O)N[C@@H](CCCNC(=N)N)C(N)=O)NC(=O)[C@H](C)NC(=O)[C@H](C(C)C)NC(=O)[C@H](CCCCN)NC(=O)[C@H](CC(C)C)NC(=O)[C@H](Cc2ccccc2)NC(=O)[C@H](CC(C)C)NC1=O)[C@@H](C)O)C(C)C` [SP-15, Ac-NlcDVNAibT$r8LFLKVA$R-NH2] (Ac-[Nle]DVN[Aib]T[R8]LFLKVA[S5]R-NH2; staple 7-14) the “AUC,all” value was 23.3 µg·h/mL, the “AUC,inf” value was 25.41 µg·h/mL and the “Cl” value was 0.118 L/h/kg. For the same compound, the “Cmax, obs” value was 26.524 µg/mL, the “MRT” value was 1.92 h and the “T1/2” value was 1.49 h. For the same compound, the “Vss” value was 0.226 L/kg. In the case of `CCCC[C@H](NC(C)=O)C(=O)N[C@@H](CC(=O)O)C(=O)N[C@H](C(=O)N[C@@H](CC(N)=O)C(=O)N1CCC[C@H]1C(=O)N[C@H](C(=O)N[C@@H](CC(C)C)C(=O)N[C@@]1(C)CCCC=CCCC[C@@](C)(C(=O)N[C@@H](C)C(=O)N[C@@H](C)C(=O)N[C@@H](CCC(N)=O)C(N)=O)NC(=O)[C@H](CCCCN)NC(=O)[C@H](CC(C)C)NC(=O)[C@H](Cc2ccccc2)NC1=O)[C@@H](C)O)C(C)C` [SP-10, Ac-NleDVNPTL$FLK$AAQ-NH2] (Ac-[Nle]DVNPTL[S5]FLK[S5]AAQ-NH2; staple 8-12), the “AUC,all” value is reported as 5.77 µg·h/mL, the “AUC,inf” value is reported as 5.8 µg·h/mL and the “Cl” value is reported as 0.531 L/h/kg. For the same compound, the “Cmax, obs” value was 11.408 µg/mL, the “MRT” value was 0.55 h and the “T1/2” value was 0.56 h. For the same compound, the “Vss” value was 0.29 L/kg.

Assay: not given
With `CCCC[C@H](NC(C)=O)C(=O)N[C@@H](CC(=O)O)C(=O)N[C@H](C(=O)N[C@@H](CC(N)=O)C(=O)NC(C)(C)C(=O)N[C@H](C(=O)N[C@@H](CC(C)C)C(=O)N[C@@H](CC(C)C)C(=O)N[C@@H](Cc1ccccc1)C(=O)N[C@@]1(C)CCCC=CCCC[C@@](C)(C(=O)N[C@@H](CCC(N)=O)C(N)=O)NC(=O)[C@H](C)NC(=O)[C@H](C(C)C)NC(=O)[C@H](CCCCN)NC1=O)[C@@H](C)O)C(C)C` (single isomer, unassigned) [SP-8 IV Dose] the “AUC,inf” value was 46.7 µg·h/mL, the “AUC,last” value was 46.6 µg·h/mL and the “Cl” value was 0.063 L/h/kg. The “MRT” value was 2 h, the “T1/2” value was 1 h and the “Vss” value was 0.105 L/kg. In the case of `CCCC[C@H](NC(C)=O)C(=O)N[C@@H](CC(=O)O)C(=O)N[C@H](C(=O)N[C@@H](CC(N)=O)C(=O)NC(C)(C)C(=O)N[C@H](C(=O)N[C@@H](CC(C)C)C(=O)N[C@@H](CC(C)C)C(=O)N[C@@H](Cc1ccccc1)C(=O)N[C@@]1(C)CCCC=CCCC[C@@](C)(C(=O)N[C@@H](CCC(N)=O)C(N)=O)NC(=O)[C@H](C)NC(=O)[C@H](C(C)C)NC(=O)[C@H](CCCCN)NC1=O)[C@@H](C)O)C(C)C` (single isomer, unassigned) [SP-8 Subcutaneous], the “AUC,inf” value is reported as 10.2 µg·h/mL, the “AUC,last” value is reported as 9.69 µg·h/mL and the “Cl” value is reported as 0.275 L/h/kg. For the same compound, the “MRT” value was 13 h, the “T1/2” value was 10 h and the “Vss” value was 3.629 L/kg.
